The values below come from US11957687B2 (REGENERON PHARMACEUTICALS, INC., priority 2019, dated 2024).

One series concerns the target HSD17B13 (Homo sapiens (Human), UniProt Q7Z5P4). The series can be described thus: HSD17B13 enzymatic inhibition assay (150 nM or 50 nM HSD17B13). It counts as biochemical. The conditions noted are these: 50 nM HSD17B13; read-out: Inhibition of 50 nM of HSD17B13 IC50.
Series [1] in a line: Microsome stability assay, human liver microsomes. As to conditions: 1 μM compound, 0.5 mg/mL microsomal protein. It counts as in vitro ADME. In outline: (§1)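 Compound at 1 μM incubated at 37° C with pooled human or mouse liver microsomes (0.5 mg/mL protein) plus NADPH regenerating system, sampled at 0–60 min; a 60-min no-NADPH incubation also included. Single replicate; LC/MS/MS disappearance from analyte/internal standard peak area ratios, without standard curve.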

Series [2] in a line: Microsome stability assay, mouse liver microsomes. It counts as in vitro ADME. The conditions noted are these: 1 μM compound, 0.5 mg/mL microsomal protein; for microsomal CLint at 1 h, 1 µM / half-life at 1 h, 1 µM / microsomal CLint at 1 μM / half-life at 1 μM: mouse, mouse liver microsomes, pooled, NADPH, 37° C.; for microsomal CLint at 1 h, 1 µM / microsomal CLint at 1 μM: read-out: Microsome Stability Mouse liver microsomes Cl; for half-life at 1 h, 1 µM / half-life at 1 μM: read-out: Microsome Stability Mouse liver microsomes T½. In outline:
as §1

For a further series, the target named is HSD17B1 (Homo sapiens (Human), UniProt P14061). In words: HSD17B1 enzymatic blocking assay. As to conditions: 25 μM Estradiol, 500 μM NAD; read-out: Inhibition of HSD17B1 IC50. It counts as biochemical. In outline:
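Activity followed as NADH formed on estradiol oxidation, read by NADH-Glo luminescence after 1 h detection in the dark at room temperature. Compounds preincubated with enzyme 30 min at room temperature; 0.5% DMSO and no-substrate controls. IC50 fitted from luminescence.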

Another series concerns the target HSD17B2 (Homo sapiens (Human), UniProt P37059). In words: HSD17B2 enzymatic blocking assay. The conditions noted are these: 1.8 μM Estradiol, 650 μM NAD; read-out: Inhibition of HSD17B2 IC50. Format: biochemical. Summed up: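 Mammalian-expressed enzyme at 2 ng/μL in 50 mM Tris-HCl pH 7.5 with detergents/BSA, preincubated 15 min at 20° C. with compound (10-point titration). Reaction with 1.8 μM estradiol and 650 μM NAD ran 45 min at 20° C.; NADH measured by NADH-Glo luminescence and IC50 derived.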

Where [3] appears, read: human, human liver microsomes, pooled, NADPH, 37° C., read-out: Microsome Stability Human liver microsomes Cl.
[4] abbreviates: human, human liver microsomes, pooled, NADPH, 37° C., read-out: Microsome Stability Human liver microsomes T½.

Chain of HSD17B2 (P37059 other isoform, or with tags, fused parts or gaps): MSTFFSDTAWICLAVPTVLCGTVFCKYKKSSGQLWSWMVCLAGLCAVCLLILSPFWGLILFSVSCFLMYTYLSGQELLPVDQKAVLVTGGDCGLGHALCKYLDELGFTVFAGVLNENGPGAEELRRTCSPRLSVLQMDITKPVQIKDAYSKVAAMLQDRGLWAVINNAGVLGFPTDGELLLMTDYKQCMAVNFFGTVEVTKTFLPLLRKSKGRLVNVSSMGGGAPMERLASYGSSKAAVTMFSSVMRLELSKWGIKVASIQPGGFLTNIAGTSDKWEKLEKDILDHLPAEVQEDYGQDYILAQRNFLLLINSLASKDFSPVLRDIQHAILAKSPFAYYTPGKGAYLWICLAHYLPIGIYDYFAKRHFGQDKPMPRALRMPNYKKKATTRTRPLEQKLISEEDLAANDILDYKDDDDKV
Chain of HSD17B1 (P14061 other isoform, or with tags, fused parts or gaps): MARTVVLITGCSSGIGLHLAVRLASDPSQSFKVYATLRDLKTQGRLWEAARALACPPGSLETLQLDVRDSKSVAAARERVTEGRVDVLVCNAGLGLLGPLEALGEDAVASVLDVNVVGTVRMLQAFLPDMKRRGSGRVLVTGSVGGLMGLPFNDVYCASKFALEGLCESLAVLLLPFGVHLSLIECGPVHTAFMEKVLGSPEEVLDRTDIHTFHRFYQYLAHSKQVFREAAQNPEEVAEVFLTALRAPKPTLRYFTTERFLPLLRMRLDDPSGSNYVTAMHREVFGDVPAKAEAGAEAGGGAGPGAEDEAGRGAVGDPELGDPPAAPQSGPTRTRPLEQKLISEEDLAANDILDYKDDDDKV
Chain of HSD17B13 (Q7Z5P4 other isoform, or with tags, fused parts or gaps): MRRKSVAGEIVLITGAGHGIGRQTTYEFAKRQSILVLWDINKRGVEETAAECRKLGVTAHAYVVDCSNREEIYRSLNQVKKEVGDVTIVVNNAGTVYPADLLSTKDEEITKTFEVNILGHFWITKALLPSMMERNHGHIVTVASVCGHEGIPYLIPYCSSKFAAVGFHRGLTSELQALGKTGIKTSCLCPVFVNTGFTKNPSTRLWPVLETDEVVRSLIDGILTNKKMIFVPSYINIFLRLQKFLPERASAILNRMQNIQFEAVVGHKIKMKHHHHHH

Regarding `COc1ccc2c(c1)Sc1ccccc1C2NC(=O)c1ccc(C(F)F)[nH]c1=O` (stereo not drawn) [Compound 272, 6-(difluoromethyl)-N-(3-methoxy-9H-thioxanthen-9-yl)-2-oxo-1,2-dihydropyridine-3-carboxamide], the IC50 on HSD17B13 was 0.43 µM; at HSD17B1, greater than 30 µM; on HSD17B2, 29.7 µM. The “Microsome Stability Human liver microsomes % Remaining @60 min” value in series [1] was determined as 73.40%. The microsomal CLint at 1 h, 1 µM in series [1] (setting [3]) came to 12.1 µL/min/mg; in series [2], 68.2 µL/min/mg. In addition, the half-life at 1 h, 1 µM in series [1] (setting [4]) is 114 min; in series [2], 20.3 min. The “Microsome Stability Mouse liver microsomes % Remaining @60 min” value in series [2] turned out to be 13.10%.
In the case of `CCCC1CCc2cc(OC)ccc2C1NC(=O)c1ccc(C(F)(F)F)[nH]c1=O` (stereo not drawn) [Compound 289, N-(6-methoxy-2-propyl-1,2,3,4-tetrahydronaphthalen-1-yl)-2-oxo-6-(trifluoromethyl)-1,2-dihydropyridine-3-carboxamide], the results for the IC50 at HSD17B13, at HSD17B1 and on HSD17B2 were 0.08 µM, greater than 30 µM and 29.4 µM, respectively. The “Microsome Stability Human liver microsomes % Remaining @60 min” value in series [1] was 14.90%. Besides, the microsomal CLint at 1 h, 1 µM was 59.9 µL/min/mg in series [1] (setting [3]) and 47 µL/min/mg in series [2]. Besides, the half-life at 1 h, 1 µM in series [1] (setting [4]) is 23.1 min; in series [2] it was 29.5 min. In addition, the “Microsome Stability Mouse liver microsomes % Remaining @60 min” value in series [2] stood at 22.70%.
For `CCC1Cc2cc(C)ccc2C1NC(=O)c1ccc(C(F)(F)F)[nH]c1=O` (stereo not drawn) [Compound 298, N-(2-ethyl-5-methyl-2,3-dihydro-1H-inden-1-yl)-2-oxo-6-(trifluoromethyl)-1,2-dihydropyridine-3-carboxamide], the IC50 at HSD17B13 is 0.06 µM; on HSD17B1, greater than 30 µM; on HSD17B2, 30.9 µM. In series [1], the “Microsome Stability Human liver microsomes % Remaining @60 min” value came to 1%. For the same compound, the values for the microsomal CLint at 1 h, 1 µM in series [1] (setting [3]) and in series [2] were 450 µL/min/mg and 45.1 µL/min/mg, respectively. Besides, the results for the half-life at 1 h, 1 µM in series [1] (setting [4]) and in series [2] were 3.08 min and 30.7 min, respectively. The “Microsome Stability Mouse liver microsomes % Remaining @60 min” value in series [2] is 26.50%.
In the case of `CCC1CCc2cc(OC)ccc2C1NC(=O)c1ccc(C(F)(F)F)[nH]c1=O` (stereo not drawn) [Compound 299, N-(2-ethyl-6-methoxy-1,2,3,4-tetrahydronaphthalen-1-yl)-2-oxo-6-(trifluoromethyl)-1,2-dihydropyridine-3-carboxamide], the IC50 is 0.1 µM on HSD17B13, greater than 30 µM at HSD17B1 and 22.6 µM at HSD17B2. Also, in series [1], the “Microsome Stability Human liver microsomes % Remaining @60 min” value was 11%. Besides, the values for the microsomal CLint at 1 h, 1 µM in series [1] (setting [3]) and in series [2] were 66.8 µL/min/mg and 27.4 µL/min/mg, respectively. In addition, the results for the half-life at 1 h, 1 µM in series [1] (setting [4]) and in series [2] were 20.8 min and 50.6 min, respectively. For the same compound, the “Microsome Stability Mouse liver microsomes % Remaining @60 min” value in series [2] was determined as 43.50%.
On to `Cc1ccc2c(c1)Sc1cc(C)ccc1C2NC(=O)c1cc(-c2ccccc2)c(C(F)(F)F)[nH]c1=O` [Compound 306, N-(3,6-dimethyl-9H-thioxanthen-9-yl)-2-oxo-5-phenyl-6-(trifluoromethyl)-1,2-dihydropyridine-3-carboxamide], for which the results for the IC50 at HSD17B13, on HSD17B1 and on HSD17B2 were 0.03 µM, 7.47 µM and 17.3 µM, respectively. Besides, the “Microsome Stability Human liver microsomes % Remaining @60 min” value in series [1] was 12.80%. The microsomal CLint at 1 h, 1 µM came out at 72.9 µL/min/mg in series [1] (setting [3]) and 9.6 µL/min/mg in series [2]. The half-life at 1 h, 1 µM in series [1] (setting [4]) turned out to be 19 min; in series [2] it was 144 min. The “Microsome Stability Mouse liver microsomes % Remaining @60 min” value in series [2] is 70.90%.
As to `Cc1ccc2c(c1)Sc1cc(C)ccc1C2NC(=O)c1cc(-c2ccccn2)c(C(F)(F)F)[nH]c1=O` [Compound 307, N-(3,6-dimethyl-9H-thioxanthen-9-yl)-6′-oxo-2′-(trifluoromethyl)-1′,6′ dihydro-[2,3′-bipyridine]-5′-carboxamide], the IC50 was 0.01 µM at HSD17B13, 2.73 µM on HSD17B1 and 8.98 µM on HSD17B2. In series [1], the “Microsome Stability Human liver microsomes % Remaining @60 min” value was determined as 0.85%. The microsomal CLint at 1 h, 1 µM in series [1] (setting [3]) stood at 154 µL/min/mg. In addition, in series [1] (setting [4]), the half-life at 1 h, 1 µM came to 9 min. Besides, in series [2], the “Microsome Stability Mouse liver microsomes % Remaining @60 min” value was 96.20%. Besides, the microsomal CLint at 1 μM in series [2] was less than 9.6 µL/min/mg. In addition, the half-life at 1 μM in series [2] was greater than 145 min.
With `Cc1ccc2c(c1)[C@H](O)CC[C@H]2NC(=O)c1ccc(C(F)(F)F)[nH]c1=O` [Compound 311, N-((1R,4R)-4-hydroxy-6-methyl-1,2,3,4-tetrahydronaphthalen-1-yl)-2-oxo-6-(trifluoromethyl)-1,2-dihydropyridine-3-carboxamide], the results for the IC50 at HSD17B13, on HSD17B1 and on HSD17B2 were 0.19 µM, greater than 30 µM and greater than 100 µM, respectively. Also, the “Microsome Stability Human liver microsomes % Remaining @60 min” value in series [1] is 67.80%. Also, in series [1] (setting [3]), the microsomal CLint at 1 h, 1 µM was 10.5 µL/min/mg. Besides, the half-life at 1 h, 1 µM in series [1] (setting [4]) was 132 min. Further, the “Microsome Stability Mouse liver microsomes % Remaining @60 min” value in series [2] was found to be 105%. Besides, the microsomal CLint at 1 μM in series [2] is less than 9.6 µL/min/mg. Also, the half-life at 1 μM in series [2] is greater than 145 min.
In the case of `COc1ccc2c(c1)Oc1cnccc1C2NC(=O)c1ccc(C(F)(F)F)[nH]c1=O` (stereo not drawn) [Compound 327, N-(8-methoxy-5H-chromeno[2,3-c]pyridin-5-yl)-2-oxo-6-(trifluoromethyl)-1,2-dihydropyridine-3-carboxamide], the values for the 50% inhibitory concentration (IC50) at HSD17B13, on HSD17B1 and on HSD17B2 were 0.38 µM, 21.4 µM and greater than 100 µM, respectively. The “Microsome Stability Human liver microsomes % Remaining @60 min” value in series [1] came to 62%. Further, the figures for the microsomal CLint at 1 h, 1 µM in series [1] (setting [3]) and in series [2] were 15.8 µL/min/mg and 24.6 µL/min/mg, respectively. The values for the half-life at 1 h, 1 µM in series [1] (setting [4]) and in series [2] were 87.7 min and 56.3 min, respectively. Also, in series [2], the “Microsome Stability Mouse liver microsomes % Remaining @60 min” value is 46%.
As to `COC1Cc2cc(C)ccc2C1NC(=O)c1ccc(C(F)(F)F)[nH]c1=O` (stereo not drawn) [Compound 351, N-(2-methoxy-5-methyl-2,3-dihydro-1H-inden-1-yl)-2-oxo-6-(trifluoromethyl)-1,2-dihydropyridine-3-carboxamide], the IC50 at HSD17B13 amounted to 0.51 µM. In series [1], the “Microsome Stability Human liver microsomes % Remaining @60 min” value was found to be 0.73%. Further, in series [1] (setting [3]), the microsomal CLint at 1 h, 1 µM worked out at 157 µL/min/mg. The half-life at 1 h, 1 µM in series [1] (setting [4]) worked out at 8.84 min. For the same compound, in series [2], the “Microsome Stability Mouse liver microsomes % Remaining @60 min” value is 83.70%, the microsomal CLint at 1 μM is less than 9.6 µL/min/mg and the half-life at 1 μM was greater than 145 min. In addition, at HSD17B1, the concentration for half-maximal inhibition (IC50) is greater than 30 µM. Moreover, the IC50 at HSD17B2 was determined as 65.4 µM.
Turning to `COc1ccc2c(c1)CC(OC)C2NC(=O)c1ccc(C(F)(F)F)[nH]c1=O` (stereo not drawn) [Compound 352, N-(2,5-dimethoxy-2,3-dihydro-1H-inden-1-yl)-2-oxo-6-(trifluoromethyl)-1,2-dihydropyridine-3-carboxamide], the IC50 at HSD17B13 came to 0.7 µM. For the same compound, the “Microsome Stability Human liver microsomes % Remaining @60 min” value in series [1] was 5.86%. Also, the microsomal CLint at 1 h, 1 µM in series [1] (setting [3]) was 93.5 µL/min/mg. The half-life at 1 h, 1 µM in series [1] (setting [4]) was determined as 14.8 min. In addition, in series [2], the “Microsome Stability Mouse liver microsomes % Remaining @60 min” value turned out to be 88.70%, the microsomal CLint at 1 μM is less than 9.6 µL/min/mg and the half-life at 1 μM was greater than 145 min. The IC50 on HSD17B1 is greater than 30 µM. Also, the IC50 on HSD17B2 is greater than 100 µM.
On to `CC[C@@H]1Oc2cc(C)ccc2[C@H]1NC(=O)c1ccc(C(F)(F)F)[nH]c1=O` [Compound 360, N-((2S,3R)-2-ethyl-6-methyl-2,3-dihydrobenzofuran-3-yl)-2-oxo-6-(trifluoromethyl)-1,2-dihydropyridine-3-carboxamide], for which the IC50 at HSD17B13 was 0.59 µM; on HSD17B1 it was greater than 30 µM; at HSD17B2, 23.1 µM. The “Microsome Stability Human liver microsomes % Remaining @60 min” value in series [1] came out at 1%. Moreover, the microsomal CLint at 1 h, 1 µM in series [1] (setting [3]) was found to be 318 µL/min/mg; in series [2], 32.8 µL/min/mg. In addition, the half-life at 1 h, 1 µM in series [1] (setting [4]) came to 4.36 min; in series [2] it was 42.2 min. For the same compound, the “Microsome Stability Mouse liver microsomes % Remaining @60 min” value in series [2] is on record as 36.20%.
On to `CCC[C@H]1C[C@@H](NC(=O)c2ccc(C(F)(F)F)[nH]c2=O)c2cc(C)ccc2N1` [Compound 362, N-((2S,4R)-6-methyl-2-propyl-1,2,3,4-tetrahydroquinolin-4-yl)-2-oxo-6-(trifluoromethyl)-1,2-dihydropyridine-3-carboxamide], for which the IC50 on HSD17B13 was 0.08 µM; at HSD17B1, greater than 30 µM; on HSD17B2, 27.5 µM. Moreover, the “Microsome Stability Human liver microsomes % Remaining @60 min” value in series [1] came to 58.50%. In addition, the microsomal CLint at 1 μM in series [1] (setting [3]) amounted to 15.3 µL/min/mg; in series [2] it was 12.1 µL/min/mg. For the same compound, the half-life at 1 μM in series [1] (setting [4]) was 90.7 min; in series [2], 114 min. The “Microsome Stability Mouse liver microsomes % Remaining @60 min” value in series [2] amounted to 70%.
